In paper PMC6893700 (Viruses, 2019):
Where two headings read alike, the source gives them in different places.

Experiments:
[1] = system: ZIKV strain PRVABC59; type: cell-based, Zika virus (ZIKV)
[2] = system: ZIKV strain PAN2016; test: Plaque reduction inhibition assay, ZIKV PAN2016 in Vero E6 cells; type: cell-based; conditions: Zika virus
[3] = system: ZIKV strain PAN2016; type: cell-based, Zika virus (ZIKV); conditions: for IC50: Zika virus
[4] = system: ZIKV strain FLR; test: Plaque reduction inhibition assay, ZIKV FLR in Vero E6 cells; type: cell-based; conditions: Zika virus
[5] = system: Vero E6 cells; test: Combinatorial cytotoxicity of gossypol with other natural products, CCK8; conditions: Vero E6; for Fold of Enhancement of cytotoxicity (natural product with gossypol): (CC50 alone)/(CC50 in the mixture)—1
[6] = as above; conditions: African green monkey
[7] = system: ZIKV strain PLCal_ZV; test: Plaque reduction inhibition assay, ZIKV PLCal_ZV in Vero E6 cells; type: cell-based; conditions: Zika virus
[8] = system: ZIKV mosquito strain MEX 2–81; test: Plaque reduction inhibition assay, ZIKV MEX 2–81 in Vero E6 cells; type: cell-based; conditions: Zika virus
[9] = target: ZIKV full-length E protein (Zika virus, UniProt A0A024B7W1); type: binding; conditions: ELISA
ZIKV full-length E protein, sequence (A0A024B7W1 291-794): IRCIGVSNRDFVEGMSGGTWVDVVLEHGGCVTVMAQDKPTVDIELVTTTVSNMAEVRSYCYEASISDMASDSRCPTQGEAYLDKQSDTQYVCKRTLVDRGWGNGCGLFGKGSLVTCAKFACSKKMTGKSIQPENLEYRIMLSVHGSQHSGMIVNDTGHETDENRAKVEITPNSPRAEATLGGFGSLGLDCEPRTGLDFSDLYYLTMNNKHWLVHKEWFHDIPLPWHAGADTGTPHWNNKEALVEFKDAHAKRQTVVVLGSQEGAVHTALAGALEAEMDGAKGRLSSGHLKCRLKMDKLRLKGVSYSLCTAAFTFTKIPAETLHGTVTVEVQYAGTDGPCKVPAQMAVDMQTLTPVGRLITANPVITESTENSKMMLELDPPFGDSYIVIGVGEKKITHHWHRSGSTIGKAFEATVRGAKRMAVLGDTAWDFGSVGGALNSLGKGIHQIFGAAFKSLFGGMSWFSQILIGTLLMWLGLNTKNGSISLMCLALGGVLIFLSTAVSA

[10] = system: ZIKV strain FLR; type: cell-based, Zika virus (ZIKV); conditions: for IC50: Zika virus
[11] = system: Vero E6 cells; test: Initial screening: cytotoxicity observed under a microscope; conditions: initial screening at 20 µM
[12] = system: ZIKV (PAN2016); test: Time-of-addition experiment, ZIKV PAN2016 in Vero E6 cells; type: cell-based, Zika virus (ZIKV); conditions: for inhibition at 7.5 µM: Zika virus, Vero C1008, 1 h; for inhibition of ZIKV infection, step a: pretreatment of ZIKV: natural product with ZIKV 37 °C 1 h before cells
[13] = system: DENV-3-V1043; test: Plaque reduction inhibition assay, DENV-3 in LLC-MK2 cells; type: cell-based; conditions: Dengue virus, DENV3
[14] = system: DENV-1-V1792; test: Plaque reduction inhibition assay, DENV-1 in LLC-MK2 cells; type: cell-based; conditions: Dengue virus, DENV1
[15] = target: T1, ZIKV envelope protein domain III (EDIII) protein (Zika virus, UniProt A0A024B7W1); type: binding; conditions: ELISA
T1 construct: E residues 298–409 fused with a C-terminal human Fc; made in house
T1 sequence (A0A024B7W1 588-699): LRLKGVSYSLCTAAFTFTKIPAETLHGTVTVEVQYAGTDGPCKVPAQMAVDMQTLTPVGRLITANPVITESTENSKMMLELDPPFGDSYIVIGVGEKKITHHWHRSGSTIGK

[16] = in vitro; conditions: African green monkey
[17] = system: ZIKV rhesus macaque strain MR 766; test: Plaque reduction inhibition assay, ZIKV MR 766 in Vero E6 cells; type: cell-based; conditions: Zika virus, Vero C1008, in Macaca mulatta, read-out: IC50 MR 766
[18] = system: ZIKV strain R116265; test: Plaque reduction inhibition assay, ZIKV R116265 in Vero E6 cells; type: cell-based; conditions: Zika virus, Vero C1008
[19] = system: DENV-4-PR 06-65-740; test: Plaque reduction inhibition assay, DENV-4 in LLC-MK2 cells; type: cell-based; conditions: Dengue virus, DENV4
[20] = in vitro; conditions: rhesus monkey
[21] = system: DENV-2-V594; test: Plaque reduction inhibition assay, DENV-2 in LLC-MK2 cells; type: cell-based; conditions: Dengue virus, DENV2
[22] = system: ZIKV strain R103451; test: Plaque reduction inhibition assay, ZIKV R103451 in Vero E6 cells; type: cell-based; conditions: Zika virus
[23] = system: ZIKV strain PRVABC59; test: Plaque reduction inhibition assay, ZIKV PRVABC59 in Vero E6 cells; type: cell-based; conditions: Zika virus
[24] = system: ZIKV strain PAN2015; test: Plaque reduction inhibition assay, ZIKV PAN2015 in Vero E6 cells; type: cell-based; conditions: Zika virus, Vero C1008
[25] = system: ZIKV strain IbH 30656; test: Plaque reduction inhibition assay, ZIKV IbH 30656 in Vero E6 cells; type: cell-based; conditions: Zika virus, Vero C1008, read-out: IC50 IbH 30656
[26] = in vitro; conditions: African green monkey; remark: listed apart in the source
[27] = system: nine ZIKV strains; test: Plaque reduction inhibition assay, nine additional ZIKV strains (summary); type: cell-based; conditions: Zika virus, Vero C1008; range over nine additional ZIKV strains, Vero E6 cells; read-out: IC50 values against all nine ZIKV strains tested
[28] = target: binding between ZIKV EDIII protein and EDIII-specific human mAbs (Zika virus, UniProt A0A024B7W1); conditions: ELISA; no binding between ZKA78 and EDIII
binding between ZIKV EDIII protein and EDIII-specific human mAbs, sequence (A0A024B7W1 588-699): as above

[29] = gossypol 15 µM, curcumin 30 µM, digitonin 7.5 µM, conessine 30 µM
[30] = Vero C1008, read-out: IC50 Alone

With C[C@@H]1CC[C@@]2(OC1)O[C@H]1[C@@H](O)[C@H]3[C@@H]4CC[C@H]5C[C@@H](O[C@@H]6O[C@H](CO)[C@H](O[C@@H]7O[C@H](CO)[C@@H](O)[C@H](O[C@@H]8OC[C@@H](O)[C@H](O)[C@H]8O)[C@H]7O[C@@H]7O[C@H](CO)[C@H](O)[C@H](O[C@@H]8O[C@H](CO)[C@@H](O)[C@H](O)[C@H]8O)[C@H]7O)[C@H](O)[C@H]6O)[C@H](O)C[C@]5(C)[C@H]4CC[C@]3(C)[C@H]1[C@@H]2C [Digitonin, digitonin] the “Fold of Enhancement (natural product with gossypol)” value ([1]; ZIKV PRVABC59, (IC50 alone)/(IC50 in the mixture)—1) was 5.98, the “CI (combination index) of gossypol with the named natural product” value (from here on “CI (combination index) of gossypol”) ([1]; ZIKV PRVABC59, CI < 1 synergy) was 0.29 and the IC50 ([1]; Zika virus, Vero C1008, ZIKV PRVABC59, Vero E6, natural product without combination, read-out: IC50 Alone) was 3.84 ± 0.81 µM. The IC90 ([2]; Vero C1008, 90% plaque reduction, Vero E6 cells, read-out: IC90 against ZIKV PAN2016 strain) was roughly 7.91 µM, the IC50 ([2]; Vero C1008, plaque reduction, Vero E6 cells, read-out: IC50 PAN2016) was 4.31 ± 0.23 µM and the “Fold of Enhancement (natural product with gossypol)” value ([3]; ZIKV PAN2016, (IC50 alone)/(IC50 in the mixture)—1) was 2.21. For the same compound, the “CI (combination index) of gossypol” value ([3]; ZIKV PAN2016, CI < 1 synergy) was 0.60, the IC50 ([3]; Vero C1008, ZIKV PAN2016, Vero E6, natural product without combination, read-out: IC50 Alone) was 4.85 ± 0.24 µM and the IC50 ([4]; Vero C1008, plaque reduction, Vero E6 cells, read-out: IC50 FLR) was 3.34 ± 0.22 µM. The “Fold of Enhancement of cytotoxicity (natural product with gossypol)” value [5] was 2.60, the “Fold of Enhancement of cytotoxicity (natural product with gossypol)” value ([5]; listed as digitonin) was “about 2.60” and the “CI (combination index, cytotoxicity) of gossypol with the named natural product” value ([5]; based on CC50) was 1.36. For the same compound, the CC50 at 3 days [6] was 50.63 ± 0.22 µM, the IC50 ([7]; Vero C1008, plaque reduction, Vero E6 cells, read-out: IC50 PLCal_ZV) was 3.19 ± 0.25 µM and the IC50 ([8]; Vero C1008, plaque reduction, Vero E6 cells, read-out: IC50 MEX 2–81) was 3.84 ± 0.12 µM. The “binding to ZIKV full-length E protein (in words)” value [9] was “did not bind”, the “CI (combination index) of gossypol” value ([10]; ZIKV FLR, CI < 1 synergy) was 0.95 and the IC50 ([10]; Vero C1008, ZIKV FLR, Vero E6, natural product without combination, read-out: IC50 Alone) was 3.86 ± 0.02 µM. For the same compound, the “cytotoxicity in Vero E6 cells observed under a microscope” value [11] was “no obvious cytotoxicity”, the inhibition at 7.5 µM ([12]; read-out: inhibition of ZIKV infection, step c: cotreatment at 4 °C (attachment)) was 49 to 74% and the inhibition at 7.5 µM ([12]; read-out: inhibition of ZIKV infection, step d: cotreatment at 37 °C) was no less than 94%. For the same compound, the inhibition at 7.5 µM ([12]; read-out: inhibition of ZIKV infection, step e: penetration (membrane fusion)) was 49 to 74%, the inhibition at 7.5 µM ([12]; read-out: inhibition of ZIKV infection, step f: postentry stage) was 49 to 74% and the “inhibition of ZIKV infection, step a: pretreatment of ZIKV” value [12, 29] was “no effect”. The IC50 [13] was 4.07 ± 0.83 µM, the IC50 [14] was 5.21 ± 0.35 µM and the “binding to ZIKV EDIII protein (in words)” value [15] was “did not bind”. It also gave a CC50 at 3 days [16] of 56.3 ± 1.2 µM, an IC50 ([17]; plaque reduction, Vero E6 cells) of 3.77 ± 0.31 µM and an IC50 [18] of 6.52 ± 0.59 µM. For the same compound, the IC50 [19] was 6.44 ± 0.34 µM, the CC50 at 3 days [20] was 59.02 ± 0.33 µM and the IC50 [21] was 6.56 ± 0.21 µM. For the same compound, the IC50 ([22]; Vero C1008, plaque reduction, Vero E6 cells, read-out: IC50 R103451) was 4.3 ± 0.43 µM, the IC50 ([23]; Vero C1008, plaque reduction, Vero E6 cells) was 3.76 ± 1.12 µM and the IC50 [24] was 5 ± 0.01 µM.
In the case of Cc1cc2c(C(C)C)c(O)c(O)c(C=O)c2c(O)c1-c1c(C)cc2c(C(C)C)c(O)c(O)c(C=O)c2c1O [Gossypol, gossypol], the IC50 ([2]; Vero C1008, read-out: IC50 PAN2016) is reported as 3.48 ± 0.03 µM, the IC90 ([2]; Vero C1008, read-out: IC90 against ZIKV PAN2016 strain) is reported as roughly 6.91 µM and the IC50 [3, 30] is reported as 3.79 ± 0.01 µM. The IC50 ([4]; Vero C1008, read-out: IC50 FLR) was 0.21 ± 0.01 µM, the IC50 ([7]; Vero C1008, read-out: IC50 PLCal_ZV) was 1.98 ± 0.07 µM and the IC50 ([8]; Vero C1008, read-out: IC50 MEX 2–81) was 2.79 ± 0.01 µM. The IC50 [25] was 3.31 ± 0.11 µM, the IC50 [10, 30] was 0.26 ± 0.01 µM and the CC50 at 3 days [26] was 14.8 ± 0.42 µM. The “cytotoxicity in Vero E6 cells observed under a microscope” value [11] was “no obvious cytotoxicity”, the “inhibition of ZIKV infection, step e: penetration (membrane fusion)” value ([12]; cells with ZIKV 4 °C 1 h, then natural product 37 °C 1 h, gossypol 15 µM, curcumin 30 µM, digitonin 7.5 µM, conessine 30 µM) was “maintained its infectivity” and the “inhibition of ZIKV infection, step f: postentry stage” value ([12]; cells with ZIKV 37 °C 1 h, then natural product 37 °C 1 h, gossypol 15 µM, curcumin 30 µM, digitonin 7.5 µM, conessine 30 µM) was “maintained its infectivity”. For the same compound, the “inhibition of ZIKV infection, step b: pretreatment of cells” value ([12]; cells with natural product 37 °C 1 h before ZIKV, gossypol 15 µM, curcumin 30 µM, digitonin 7.5 µM, conessine 30 µM) was “maintained its infectivity”, the “inhibition of ZIKV infection, step c: cotreatment at 4 °C (attachment)” value ([12]; cells, ZIKV and natural product 4 °C 1 h, gossypol 15 µM, curcumin 30 µM, digitonin 7.5 µM, conessine 30 µM) was “maintained its infectivity” and the “inhibition of ZIKV infection, step d: cotreatment at 37 °C” value ([12]; cells, ZIKV and natural product 37 °C 1 h, gossypol 15 µM, curcumin 30 µM, digitonin 7.5 µM, conessine 30 µM) was “maintained its infectivity”. The “inhibition of ZIKV infection, step a: pretreatment of ZIKV” value [12, 29] was “completely lost its infectivity”, the IC50 [13] was 3.7 ± 0.59 µM and the IC50 [14] was 1.87 ± 0.01 µM. The CC50 at 3 days [16] was 14.2 ± 0.74 µM, the IC50 [17] was 3.75 ± 0.01 µM and the IC50 [27] was 0.21 to 4.31 µM. For the same compound, the IC50 [19] was 2.6 ± 0.12 µM, the CC50 at 3 days [20] was 14.5 ± 0.59 µM and the “inhibition with control mAb ZKA78 (EDI/DII-specific)” value [28] was “no obvious inhibition”. The IC50 [21] was 1.89 ± 0.21 µM, the IC50 ([22]; Vero C1008, read-out: IC50 R103451) was 2.28 ± 0.1 µM and the IC90 ([23]; Vero C1008, read-out: IC90 against ZIKV strain PRVABC59) was roughly 8.81 µM.
